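Five compound concentrations were applied to cells in 96-well plates for 48 hours; endpoints were derived by simple linear interpolation of the resulting dose-response curve. At the GI50, growth is halved.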 Active and inactive are the calls of the source. Cut-off read from the data, not from the text of the source: active = GI50 up to about 1.1 µM and inactive = higher.

What all share (experiment): NCI tumour cell line growth inhibition, 48 h
Experiment [1] deals with 786-0.
For experiment [2], the system named is A498.
In experiment [3] the test system is CAKI-1.
Experiment [4] has as its system CCRF-CEM.
The test system of experiment [5] is DU-145.
For experiment [6], the system named is EKVX.
Experiment [7] concerns HCT-116.
Experiment [8] relates to HOP-62.
Experiment [9] has as its system LOX IMVI.
Experiment [10] deals with MDA-MB-231.
Experiment [11] has as its system MOLT-4.
Experiment [12] has as its system Malme-3M.
Experiment [13] concerns OVCAR-5.
Experiment [14] concerns PC-3.
In experiment [15] the test system is SF-268.
Experiment [16] concerns SK-MEL-2.
Experiment [17] relates to SNB-19.
In experiment [18] the test system is U-251.
For experiment [19], the system named is UACC-62.

As to `COc1ccc2nc(-c3ccc(O)cc3)cn2c1`, the GI50 is 58.7 µM (inactive) in experiment [1]; 71.4 µM (inactive) in experiment [2]; 55.8 µM (inactive) in experiment [3]; 72.1 µM (inactive) in [4]; 86.9 µM (inactive) in [5]; 98.6 µM (inactive) in experiment [6]. In addition, the GI50 is 48.5 µM (inactive) in [7]; 50.1 µM (inactive) in experiment [8]; 59 µM (inactive) in experiment [9]; > 100 µM (inactive) in experiment [10]; 49.1 µM (inactive) in experiment [11]; > 100 µM (inactive) in experiment [12]. The GI50 in experiment [13] was > 100 µM (inactive); in experiment [14], 43.9 µM (inactive); in experiment [15] it was 56.8 µM (inactive); in [16], > 100 µM (inactive); in experiment [17] it was > 100 µM (inactive); in [18], 44.7 µM (inactive). The GI50 in experiment [19] is 24.7 µM (inactive).

With `COc1ccc2[nH]c3c(C)c4ccnc(NCCCN(C)CCCNc5ccc6ncn7c8ccccc8c(=O)c5c67)c4c(C)c3c2c1`, the GI50 in experiment [1] was 0.0632 µM (active); in experiment [2], 1.11 µM (active); in experiment [3] it was 0.242 µM (active); in experiment [4], 0.0394 µM (active); in experiment [5], 0.796 µM (active); in [6], 0.94 µM (active). The GI50 is 0.0767 µM (active) in experiment [7]; 0.275 µM (active) in experiment [8]; 0.136 µM (active) in [9]; 0.322 µM (active) in experiment [10]; 0.0043 µM (active) in experiment [11]; 1.07 µM (active) in [12]. Further, the GI50 was 1.3 µM (inactive) in experiment [13]; 0.752 µM (active) in [14]; 0.352 µM (active) in [15]; 3.24 µM (inactive) in experiment [16]; 0.752 µM (active) in [17]; 0.134 µM (active) in experiment [18]. Moreover, the GI50 in experiment [19] is 1.71 µM (inactive).

On to `Cc1ccc(-n2cnc3c(N)nc(N)nc32)cc1`, for which the GI50 is > 100 µM (inactive) in experiment [1]; > 100 µM (inactive) in experiment [2]; > 100 µM (inactive) in [3]; 43.1 µM (inactive) in experiment [4]; > 100 µM (inactive) in experiment [5]; 81.5 µM (inactive) in [6]. For the same molecule, the GI50 was > 100 µM (inactive) in [7]; > 100 µM (inactive) in experiment [8]; > 100 µM (inactive) in [9]; > 100 µM (inactive) in [10]; 44.7 µM (inactive) in [11]; > 100 µM (inactive) in experiment [12]. Also, the GI50 in experiment [13], in experiment [14], in experiment [15], in experiment [16], in experiment [17] and in experiment [18] was > 100 µM (inactive) throughout. The GI50 in [19] was 84.1 µM (inactive).

`S=C1/C(=N/c2ccccc2)N(c2ccccc2)/C(=N\c2ccccn2)N1c1ccccc1`: the GI50 in experiment [1] was 14.5 µM (inactive); in experiment [2], 14.5 µM (inactive); in experiment [3], 15.5 µM (inactive); in experiment [4] it was > 100 µM (inactive); in [5], 19.8 µM (inactive); in [6], 13.5 µM (inactive). Moreover, the GI50 in [7] is 14.2 µM (inactive); in experiment [8], 16.3 µM (inactive); in experiment [9], 6.61 µM (inactive); in experiment [10] it was 16.6 µM (inactive); in experiment [11], > 100 µM (inactive); in experiment [12] it was 16.9 µM (inactive). The GI50 is 16.4 µM (inactive) in experiment [13]; 12.8 µM (inactive) in experiment [14]; 16.6 µM (inactive) in experiment [15]; 11.9 µM (inactive) in [16]; 16.3 µM (inactive) in experiment [17]; 15.8 µM (inactive) in experiment [18]. In addition, in experiment [19], the GI50 is 2.77 µM (inactive).

`CC1(C)Oc2ccccc2OC1O` (centres undefined): the GI50 in experiment [1], in experiment [2], in experiment [3], in experiment [4], in experiment [5] and in [6] was > 100 µM (inactive) in each case. Besides, the GI50 in [7], in experiment [8], in experiment [9], in experiment [10], in experiment [11] and in experiment [12] was > 100 µM (inactive) in each case. The GI50 in experiment [13], in experiment [14], in experiment [15], in [16], in [17] and in experiment [18] was > 100 µM (inactive) throughout. Also, the GI50 in [19] was > 100 µM (inactive).

For the molecule `Cc1ccc(S(=O)(=O)NN=C2CCCCCCCCCCC2)cc1`, the GI50 in experiment [1], in [2], in experiment [3], in experiment [4], in experiment [5] and in [6] was > 100 µM (inactive) in each case. Besides, the GI50 in experiment [7], in [8], in [9], in experiment [10], in [11] and in experiment [12] was > 100 µM (inactive) in each case. Further, the GI50 in [13], in experiment [14], in experiment [15], in experiment [16], in [17] and in experiment [18] was > 100 µM (inactive) throughout. Besides, the GI50 in experiment [19] was > 100 µM (inactive).

As for `CCOC(=O)/C=C(/C(=O)OCC)n1ccc(=O)n(CC(=O)OCC)c1=O`, the GI50 in experiment [1] is 0.412 µM (active); in [2] it was 14.8 µM (inactive); in experiment [3], 0.146 µM (active); in experiment [4], 0.169 µM (active); in experiment [5], 5.01 µM (inactive); in experiment [6] it was 1.89 µM (inactive). Further, the GI50 was 1.01 µM (active) in experiment [7]; 17.2 µM (inactive) in experiment [8]; 0.869 µM (active) in [9]; 2.04 µM (inactive) in [10]; 0.243 µM (active) in [11]; 0.668 µM (active) in [12]. Moreover, the GI50 in experiment [13] was 1.67 µM (inactive); in experiment [14] it was 1.67 µM (inactive); in experiment [15], 3.11 µM (inactive); in experiment [16] it was 4.65 µM (inactive); in [17] it was 10.8 µM (inactive); in [18], 2.56 µM (inactive). The GI50 in [19] is 1.64 µM (inactive).

Take `CC(Br)C(=O)NC(CO)C(=O)O` (centres undefined): the GI50 in experiment [1], in experiment [2], in experiment [3], in experiment [4], in [5] and in experiment [6] was > 100 µM (inactive) throughout. In addition, the GI50 in experiment [7], in experiment [8], in experiment [9], in [10], in experiment [11] and in experiment [12] was > 100 µM (inactive) each time. The GI50 in experiment [13], in experiment [14], in experiment [15], in experiment [16], in [17] and in experiment [18] was > 100 µM (inactive) throughout. Also, the GI50 in experiment [19] was > 100 µM (inactive).

Turning to `O=C(NO)c1cccc(OCc2ccc(Br)cc2)c1`, the GI50 is 2.92 µM (inactive) in experiment [1]; 8.93 µM (inactive) in experiment [2]; 3.11 µM (inactive) in [3]; 1.91 µM (inactive) in [4]; 3.13 µM (inactive) in [5]; 5.9 µM (inactive) in experiment [6]. Moreover, the GI50 in [7] was 4.35 µM (inactive); in experiment [8], 4.97 µM (inactive); in experiment [9], 2.11 µM (inactive); in experiment [10], 12.3 µM (inactive); in experiment [11] it was 2.03 µM (inactive); in [12] it was 2.37 µM (inactive). Also, the GI50 in experiment [13] is 12.6 µM (inactive); in experiment [14], 5.89 µM (inactive); in experiment [15] it was 4.03 µM (inactive); in experiment [16], 11.3 µM (inactive); in experiment [17], 9.35 µM (inactive); in [18], 4.63 µM (inactive). Besides, the GI50 in [19] was 4.15 µM (inactive).

Take `CC1=C(O)C(=O)C=C2C1=CC=C1[C@@]2(C)CC[C@@]2(C)C3C[C@@H](C)C(=O)[C@@H](O)[C@]3(C)CC[C@]12C` (some centres undefined): the GI50 in experiment [1] was 0.946 µM (active); in [2], 6.32 µM (inactive); in experiment [3], 1.47 µM (inactive); in experiment [4], 0.33 µM (active); in [5], 1.79 µM (inactive); in experiment [6], 2.08 µM (inactive). The GI50 is 1.72 µM (inactive) in experiment [7]; 6.38 µM (inactive) in experiment [8]; 1.5 µM (inactive) in experiment [9]; 2 µM (inactive) in experiment [10]; 0.745 µM (active) in experiment [11]; 1.97 µM (inactive) in experiment [12]. The GI50 in experiment [13] is 4.23 µM (inactive); in experiment [14] it was 2.02 µM (inactive); in experiment [15], 3.38 µM (inactive); in experiment [16] it was 5.05 µM (inactive); in [17], 4.15 µM (inactive); in experiment [18], 1.85 µM (inactive). Besides, the GI50 in experiment [19] is 1.79 µM (inactive).

With `CC1=C2C(=C[C@@](C)(CO)[C@@H]2O)C(=O)[C@](C)(O)C12CC2` [ILLUDIN], the GI50 in experiment [1] was 0.00353 µM (active); in experiment [2], 0.0104 µM (active); in [3] it was 0.0158 µM (active); in [4], 0.0169 µM (active); in experiment [5], 0.0181 µM (active); in experiment [6] it was 0.027 µM (active). Moreover, the GI50 in [7] is 0.00386 µM (active); in [8] it was 0.00705 µM (active); in experiment [9] it was 0.00313 µM (active); in experiment [10] it was 0.0213 µM (active); in experiment [11], 0.00731 µM (active); in experiment [12] it was 0.00889 µM (active). Further, the GI50 in [13] was 0.0106 µM (active); in [14], 0.0143 µM (active); in experiment [15], 0.00293 µM (active); in [16] it was 0.0143 µM (active); in [17], 0.0282 µM (active); in [18], 0.00213 µM (active). In experiment [19], the GI50 was 0.0129 µM (active).
